Assay results as given in patent US11779628B2, “Use of cell-permeable peptide inhibitors of the JNK signal transduction pathway for the treatment of various diseases” (Xigen Inflammation Ltd., priority 2014, dated 2023).
Where two headings read alike, the source gives them in different places.

Key:
[1] = system: Wistar rats, PAN-induced nephropathy; conditions: rat, in vivo
Text: The aim of this study was to evaluate the effects of XG-102 on chronic puromycine aminonucleoside-induced nephropathy in rats during 56 days. Puromycin aminonucleoside (PAN) is a podocyte toxin inducing a loss and fusion of podocytes foot processes. PAN-induced nephropathy is a well-described model of human idiopathic […] syndrome and focal segmental glomerulosclerosis ([…], 2008). The glomerular morphologic changes seen in rats with PAN nephrosis closely resemble those in human minimal change disease (MCD) and focal segmental glomerulosclerosis (FSGS). Intraperitoneal administration of PAN in rats results in a rapid development of […] syndrome, characterized by proteinuria, hypoalbuminemia and hypercholesterolemia (acute phase). This is a well-established animal model of human MCD. […] The slides were stained by hematoxylin/eosin (HE), PAS-methenamine silver and Sirius Red for histological evaluation of morphological alterations, glomerulosclerosis and interstitial fibrosis quantification, respectively. […] Results are expressed by semi-quantitative scoring following to expert histopathologist evaluation. For the histological examination of glomerulosclerosis glomerular changes have been evaluated using a semi quantitative scoring system as described by […]. […] All data have been calculated as mean values±standard error of the mean (s.e.m.). […]

db/db mice = conditions: mouse, in vivo
Text: i) Animals • A total of twenty (20) male db/db mice (8 weeks old) were obtained from Charles River (Germany). Upon arrival, animals were group housed (n=6-7/group) and offered regular rodent chow (Altromin standard #1324 chow; C. Petersen, Ringsted, Denmark) and water ad libitum unless otherwise stated. The mice were housed under a 12:12 L/D cycle (lights on at 4:00 and lights off at 16:00) and in temperature and humidity controlled rooms.
ii) Groups and Randomization • On day −4, mice were randomized according to blood glucose level (fasted; blood glucose measured on Biosen S line analyzer (EKF diagnostic, Germany) to participate in one of the following drug treatment groups (n=6): • 1) Vehicle control, S.C. (physiological saline) • 2) XG-102 (SEQ ID NO: 11); 1 mg/kg; s.c. • 3) XG-102 (SEQ ID NO: 11); 10 mg/kg; s.c • All doses listed were calculated for the free-base. […] All compounds were administered sub-cutaneously (s.c.) in a volume of 3 ml/kg. The formulation instructions for vehicle control and XG-102 (SEQ ID NO: 11) were as follows: • First, XG-102 (SEQ ID NO: 11) was dissolved in the vehicle. […]
i) Blood Glucose • Blood glucose was measured from 7 hour fasted animals 6 hours post dosing by collection of 10 μl blood samples from the tail-vein in hematocrite tubes and subsequent analysis on a Biosen s-line analyzer (EKF-diagnostic; Germany).

`CC(C)C[C@@H](NC(=O)[C@@H](Cc1ccccc1)NC(=O)[C@H]1CCCN1C(=O)[C@@H](CCC(N)=O)NC(=O)[C@H](NC(=O)[C@H]1CCCN1C(=O)[C@@H](CCCNC(=N)N)NC(=O)[C@@H](CO)NC(=O)[C@@H](CCC(N)=O)NC(=O)[C@H](N)CC(=O)O)C(C)C)C(=O)N[C@H](CC(N)=O)C(=O)N[C@H](CC(C)C)C(=O)N[C@@H](C(=O)N[C@@H](C(=O)N1CCC[C@@H]1C(=O)N[C@H](CCCNC(=N)N)C(=O)N[C@H](CCCCN)C(=O)N1CCC[C@@H]1C(=O)N[C@H](CCCNC(=N)N)C(=O)N1CCC[C@@H]1C(=O)N1CCC[C@@H]1C(=O)N[C@H](CCCNC(=N)N)C(=O)N[C@H](CCCNC(=N)N)C(=O)N[C@H](CCCNC(=N)N)C(=O)N[C@H](CCC(N)=O)C(=O)N[C@H](CCCNC(=N)N)C(=O)N[C@H](CCCNC(=N)N)C(=O)N[C@H](CCCCN)C(=O)N[C@H](CCCCN)C(=O)N[C@H](CCCNC(=N)N)C(=O)NCC(=O)O)[C@H](C)O)[C@H](C)O` [XG-102] was tested, and the body weight [1] was “no effects of XG-102 were observed”, the “reaction of subcutaneous tissue at injection” value (db/db mice; 1 mg/kg) was “mild nodular fibrosis was observed” and the “reaction of subcutaneous tissue at injection” value (db/db mice; 10 mg/kg) was “nodular fibrosis was observed in the subcutaneous tissue”.
